Read-outs that look alike come from different tables or passages of the source.
Assays:
[1] = Urinary and fecal excretion after IV or PO administration (metabolic cage); type: in vivo; conditions: mice, IV 1.0 mg/kg
Procedure: We also investigated the excretion profile of 2-QBA after IV and PO administration at doses of 1 mg/kg for IV and 2 mg/kg for PO. After IV or PO administration of 2-QBA, the mice were returned to a metabolic cage to collect the urine and feces samples. The urine and feces samples were collected during the periods of 0–24 h, 24–48 h, 48–72 h, and 72–96 h. The urine ball was washed using equal volumes of methanol and added to the urine samples. The fecal samples were homogenized with 9 volumes of water to yield 10% fecal homogenates. The aliquots (30 μL) of urine and 10% fecal homogenate samples were stored at −80 °C until the analysis of the 2-QBA. For the analysis of the 2-QBA, 120 μL of IS solution was added to the 30 μL aliquot of urine and 10% fecal homogenate samples. The mixture was vigorously vortexed for 5 min and then centrifuged at 13,000× g for 5 min. The supernatant was transferred to autosampler vials. Subsequently, a 3 μL aliquot was injected into the LC-MS/MS system.
WinNonlin 5.1 software (Pharsight Co., Mountain View, CA, USA) was used to calculate the pharmacokinetic parameters. AUClast and AUCinf indicate the areas under the plasma concentration curve from 0 h to the last sample and from 0 h to infinity, respectively; these were estimated using the linear trapezoidal method. T1/2 is the elimination half-life, which is estimated from the elimination coefficient (k) (i.e., 0.693/k), and MRT is the mean residence time. CL is the total clearance, which is calculated by dividing the dose by AUCinf. Vdss is the volume of the distribution at a steady state, calculated from MRTxCL. CLrenal and CLfeces are calculated by dividing the amount excreted in urine and feces by the AUCinf, respectively. CLmetabolism is calculated by subtracting CLrenal and CLfeces from CL. […] BA is calculated by dividing the dose-normalized AUCinf for PO administration (AUCinf/PO dose) by the dose-normalized AUCinf for IV administration (AUCinf/IV dose). All data are expressed as the mean ± standard deviation (SD).

Plasma protein binding = type: in vitro ADME; conditions: n = 6, read-out: plasma protein binding rate (converted)
[2] = Pharmacokinetics after PO administration in mice; type: in vivo; conditions: for BA: vs IV AUCinf at 1 mg/kg; for AUC(0-t): read-out: AUC24h; for Cmax: read-out: Cmax,1; for Tmax: po
Procedure: Male ICR mice (7 weeks old, […]; Samtako, Osan, Korea) were acclimated to the animal facility at Kyungpook National University for one week with free access to animal chow and water. In the per oral administration (PO) groups, the mice were fasted for 14–16 h prior to the administration of 2-QBA.
After the PO administration of 2-QBA (2 mg/kg in 5 mL of saline containing 10% DMSO) using an oral gavage for 10 mice, blood samples were collected at 0.25, 0.75, 2, and 8 h from 5 mice and at 0.5, 1, 4, and 24 h from another 5 mice. Ten mice in each group were administered 5 mg/kg or 15 mg/kg of 2-QBA using an oral gavage and blood was drawn using the same protocol described above. All blood samples were centrifuged at 13,000× g for 1 min and the supernatant plasma (30 μL) was stored at −80 °C until the analysis of the 2-QBA. For the analysis of 2-QBA in the plasma samples, 120 μL of IS solution (berberine 1 ng/mL in acetonitrile) was added to plasma samples (30 μL). The mixture was vigorously vortexed for 5 min and then centrifuged at 13,000× g for 5 min. The supernatant was transferred to autosampler vials. Subsequently, a 3 μL aliquot was injected into the LC-MS/MS system.
WinNonlin 5.1 software (Pharsight Co., Mountain View, CA, USA) was used to calculate the pharmacokinetic parameters. AUClast and AUCinf indicate the areas under the plasma concentration curve from 0 h to the last sample and from 0 h to infinity, respectively; these were estimated using the linear trapezoidal method. T1/2 is the elimination half-life, which is estimated from the elimination coefficient (k) (i.e., 0.693/k), and MRT is the mean residence time. CL is the total clearance, which is calculated by dividing the dose by AUCinf. Vdss is the volume of the distribution at a steady state, calculated from MRTxCL. CLrenal and CLfeces are calculated by dividing the amount excreted in urine and feces by the AUCinf, respectively. CLmetabolism is calculated by subtracting CLrenal and CLfeces from CL. Cmax and Tmax are the maximum plasma concentration and time to reach Cmax, respectively. BA is calculated by dividing the dose-normalized AUCinf for PO administration (AUCinf/PO dose) by the dose-normalized AUCinf for IV administration (AUCinf/IV dose). All data are expressed as the mean ± standard deviation (SD).

[3] = male, ICR, mouse, plasma, PO 2 mg/kg
[4] = male, ICR, mouse, plasma, PO 5 mg/kg
[5] = male, ICR, mouse, plasma, PO 15 mg/kg

- CL renal ([1]; male, ICR, mouse, urine): 5.47 ± 2.22 mL/min/kg
- Amount excreted in feces for 96 h ([1]; parent form): 9.30 ± 6.17 % of dose
- Amount excreted in urine for 96 h ([1]; parent form): 13.8 ± 4.24 % of dose
- fraction unbound (Plasma protein binding): 0.128
- mean absorption time (MRTPO–MRTIV) [2]: 8.02 h
- AUC24h/dose ([2]; PO 2 mg/kg): 684.2 ± 340.3 ng·h/mL/mg/kg
- AUCinf/dose ([2]; PO 2 mg/kg): 712.7 ± 348.0 ng·h/mL/mg/kg
- BA ([2]; PO 2 mg/kg): 68.3%
- AUC24h/dose ([2]; PO 5 mg/kg): 702.9 ± 169.2 ng·h/mL/mg/kg
- AUCinf/dose ([2]; PO 5 mg/kg): 873.7 ± 186.9 ng·h/mL/mg/kg
- BA ([2]; PO 5 mg/kg): 83.7%
- AUC24h/dose ([2]; PO 15 mg/kg): 705.5 ± 182.3 ng·h/mL/mg/kg
- AUCinf/dose ([2]; PO 15 mg/kg): 734.7 ± 176.3 ng·h/mL/mg/kg
- BA ([2]; PO 15 mg/kg): 70.4%
- AUC(0-inf) [2, 3]: 1430 ± 696 ng·h/mL
- MRT [2, 3]: 12 ± 4.91 h
- half-life [2, 3]: 7.82 ± 1.76 h
- AUC(0-t) [2, 3]: 1370 ± 680 ng·h/mL
- Cmax [2, 3]: 283 ± 174 ng/mL
- AUC(0-inf) [2, 4]: 4370 ± 934 ng·h/mL
- MRT [2, 4]: 13.7 ± 3.14 h
- half-life [2, 4]: 9.91 ± 1.92 h
- AUC(0-t) [2, 4]: 3510 ± 846 ng·h/mL
- Cmax [2, 4]: 752 ± 319 ng/mL
- AUC(0-inf) [2, 5]: 11000 ng·h/mL
- MRT [2, 5]: 7.04 ± 0.76 h
- half-life [2, 5]: 5.58 ± 1.24 h
- AUC(0-t) [2, 5]: 10600 ng·h/mL
- Cmax [2, 5]: 2460 ± 696 ng/mL
- bioavailability ([2]; male, ICR, mouse, plasma, PO 2.0, 5.0 and 15 mg/kg, read-out: absolute oral bioavailability (BA) range): 68.3 to 83.7%
- Tmax ([2]; male, ICR, mouse, plasma, 2 mg/kg, PO 2 mg/kg, read-out: Tmax,1): 0.2 ± 0.11 h
- Tmax ([2]; male, ICR, mouse, plasma, 2 mg/kg, PO 2 mg/kg, read-out: Tmax,2): ~5.6 h
- Tmax ([2]; male, ICR, mouse, plasma, 5 mg/kg, PO 5 mg/kg, read-out: Tmax,1): 0.25 h
- Tmax ([2]; male, ICR, mouse, plasma, 15 mg/kg, PO 15 mg/kg, read-out: Tmax,1): 0.3 ± 0.11 h
- Tmax ([2]; male, ICR, mouse, plasma, PO 2-15 mg/kg, read-out: Tmax,1 (range over doses)): 0.2 to 0.3 h
- Tmax ([2]; male, ICR, mouse, plasma, PO 2-15 mg/kg, read-out: Tmax,2 (range over doses)): 3.5 to 5.6 h
Structure (SMILES): O=C(O)c1ccccc1NC(=O)c1cccc2cccnc12 [2-QBA, 2-(quinoline-8-carboxamido)benzoic acid]

Source: PMC11279551, “Pharmacokinetics and Enterohepatic Circulation of 2-(Quinoline-8-carboxamido)benzoic Acid (2-QBA) in Mice” (Pharmaceutics, 2024)
